Read-outs that look alike come from different tables or passages of the source.
What was measured:
Assay type in all cases: in vivo
[1] = tested on: crabgrass (Digitaria sanguinalis L.); test: Foliar treatment pot test, visual growth inhibition rate, crabgrass (DS); details: Digitaria sanguinalis, foliar; for inhibition at […]: 2.5 g/ha
Source text: (§1) When the herbicidal activity in a case where two active ingredients are combined, is larger than the simple sum of the respective herbicidal activities of the two active ingredients (the expected activity), it is called a synergistic effect. The activity expected by the combination of two active ingredients can be calculated as follows (Colby S. R., “Weed”, vol. 15, p. 20-22, 1967). E=α+β−(α×β÷100) where
(§2) Upland field soil was put into a 1/1,000,000 hectare pot, and seeds of various plants (barnyardgrass (Echinochloa crus-qalli L.), crabgrass (Digitaria sanguinalis L.), giant foxtail (Setaria faberi Herrm.), velvetleaf (Abutilon theophrasti MEDIC.) and prickly sida (Sida spinosa L.)) were sown. When the respective plants reached predetermined leaf stage, herbicidal compositions in predetermined amounts were diluted with water in an amount corresponding to 300 L/ha and applied for foliar treatment by a small sprayer.
(§3) Further, in accordance with the above Colby's formula, the growth inhibition rate (calculated value) was calculated. In Tables, with respect to the compound Q, Compound Nos. in Table 1 are described, and with respect to other herbicidal compounds, common names are described. Further, in Tables, barnyardgrass is represented by “EC”, crabgrass by “DS”, giant foxtail by “SF”, velvetleaf by “AT”, and prickly sida by “SS”.

[2] = tested on: prickly sida (Sida spinosa L.); test: Foliar treatment pot test, visual growth inhibition rate, prickly sida (SS); details: Sida spinosa, foliar, 336 h, 3.0-3.3 leaf stage, 14 DAT, read-out: Growth inhibition rate (%) of SS Measured value
Source text: as §1, §2, §3

[3] = tested on: velvetleaf (Abutilon theophrasti MEDIC.); test: Foliar treatment pot test, visual growth inhibition rate, velvetleaf (AT); details: Abutilon theophrasti, foliar
Source text: as §1, §2, §3

[4] = 504 h, 4.0-5.1 leaf stage, 21 DAT, read-out: Growth inhibition rate (%) of DS Measured value
[5] = 504 h, 3.0-3.5 leaf stage, 21 DAT, read-out: Growth inhibition rate (%) of AT Measured value
[6] = 528 h, 4.5-5.0 leaf stage, 22 DAT, read-out: Growth inhibition rate (%) of AT Measured value

Structure (SMILES): CCOCN(C(=O)CCl)c1c(C)cccc1CC [Acetochlor, acetochlor]
- inhibition at 63 g/ha ([1]; 168 h, 3.5-5.0 leaf stage, 7 DAT, 63 g/ha, read-out: Growth inhibition rate (%) of DS Measured value): 0%
- inhibition at 125 g/ha ([1]; 168 h, 3.5-5.0 leaf stage, 7 DAT, 125 g/ha, read-out: Growth inhibition rate (%) of DS Measured value): 0%
- inhibition at 250 g/ha ([1]; 168 h, 3.5-5.0 leaf stage, 7 DAT, 250 g/ha, read-out: Growth inhibition rate (%) of DS Measured value): 0%
- inhibition at 500 g/ha ([1]; 168 h, 3.5-5.0 leaf stage, 7 DAT, 500 g/ha, read-out: Growth inhibition rate (%) of DS Measured value): 0%
- inhibition at 750 g/ha ([1]; 168 h, 3.5-5.0 leaf stage, 7 DAT, 750 g/ha, read-out: Growth inhibition rate (%) of DS Measured value): 10%
- inhibition at 150 g/ha ([1]; 336 h, 4.0-5.0 leaf stage, 14 DAT, read-out: Growth inhibition rate (%) of DS Measured value): 0%
- inhibition at 400 g/ha ([1]; 504 h, 3.5-4.3 leaf stage, 21 DAT, 400 g/ha, read-out: Growth inhibition rate (%) of DS Measured value): 0%
- inhibition at 150 g/ha [1, 4]: 0%
- inhibition at 100 g/ha ([2]; 100 g/ha): 0%
- inhibition at 200 g/ha ([2]; 200 g/ha): 0%
- inhibition at 400 g/ha ([2]; 400 g/ha): 10%
- inhibition at 800 g/ha ([2]; 800 g/ha): 30%
- inhibition at 63 g/ha ([3]; 168 h, 2.3-3.5 leaf stage, 7 DAT, 63 g/ha, read-out: Growth inhibition rate (%) of AT Measured value): 0%
- inhibition at 125 g/ha ([3]; 168 h, 2.3-3.5 leaf stage, 7 DAT, 125 g/ha, read-out: Growth inhibition rate (%) of AT Measured value): 0%
- inhibition at 250 g/ha ([3]; 168 h, 2.3-3.5 leaf stage, 7 DAT, 250 g/ha, read-out: Growth inhibition rate (%) of AT Measured value): 0%
- inhibition at 500 g/ha ([3]; 168 h, 2.3-3.5 leaf stage, 7 DAT, 500 g/ha, read-out: Growth inhibition rate (%) of AT Measured value): 10%
- inhibition at 750 g/ha ([3]; 168 h, 2.3-3.5 leaf stage, 7 DAT, 750 g/ha, read-out: Growth inhibition rate (%) of AT Measured value): 0%
- inhibition at 150 g/ha ([3]; 336 h, 3.0-4.0 leaf stage, 14 DAT, 150 g/ha, read-out: Growth inhibition rate (%) of AT Measured value): 0%
- inhibition at 300 g/ha ([3]; 480 h, 3.1-3.4 leaf stage, 20 DAT, 300 g/ha, read-out: Growth inhibition rate (%) of AT Measured value): 0%
- inhibition at 400 g/ha ([3]; 504 h, 3.0-3.8 leaf stage, 21 DAT, 400 g/ha, read-out: Growth inhibition rate (%) of AT Measured value): 0%

Structure (SMILES): COc1nc(C)nc(NC(=O)NS(=O)(=O)c2ccccc2CCC(F)(F)F)n1 [Prosulfuron, prosulfuron]
- inhibition at 1.25 g/ha ([1]; 504 h, 4.0-5.1 leaf stage, 21 DAT, 1.25 g/ha, read-out: Growth inhibition rate (%) of DS Measured value): 10%
- inhibition at […] [1, 4]: 5%
- inhibition at 5 g/ha [1, 4]: 0%
- inhibition at 5 g/ha ([1]; 528 h, 4.0-5.0 leaf stage, 22 DAT, read-out: Growth inhibition rate (%) of DS Measured value): 0%
- inhibition at […] ([1]; 528 h, 4.8-5.5 leaf stage, 22 DAT, read-out: Growth inhibition rate (%) of DS Measured value): 0%
- inhibition at 10 g/ha ([1]; 552 h, 4.0-5.1 leaf stage, 23 DAT, 10 g/ha, read-out: Growth inhibition rate (%) of DS Measured value): 0%
- inhibition at 10 g/ha [3, 5]: 100%
- inhibition at 1.25 g/ha ([3]; 504 h, 4.0-4.3 leaf stage, 21 DAT, 1.25 g/ha, read-out: Growth inhibition rate (%) of AT Measured value): 50%
- inhibition at 5 g/ha ([3]; 504 h, 4.0-4.3 leaf stage, 21 DAT, read-out: Growth inhibition rate (%) of AT Measured value): 95%
- inhibition at 5 g/ha ([3]; 528 h, 4.1-4.5 leaf stage, 22 DAT, read-out: Growth inhibition rate (%) of AT Measured value): 90%
- inhibition at 5 g/ha [3, 6]: 0%
- inhibition at 10 g/ha [3, 6]: 0%

Structure (SMILES): Cn1nc(C(F)(F)F)c(CS(=O)(=O)C2=NOC(C)(C)C2)c1OC(F)F [Pyroxasulfone, pyroxasulfone]
- inhibition at 50 g/ha ([1]; 312 h, 4.4-5.0 leaf stage, 13 DAT, 50 g/ha, read-out: Growth inhibition rate (%) of DS Measured value): 0%
- inhibition at 100 g/ha ([1]; 336 h, 4.0-5.0 leaf stage, 14 DAT, 100 g/ha, read-out: Growth inhibition rate (%) of DS Measured value): 5%
- inhibition at 50 g/ha ([1]; 504 h, 4.0-5.0 leaf stage, 21 DAT, 50 g/ha, read-out: Growth inhibition rate (%) of DS Measured value): 10%
- inhibition at 50 g/ha ([3]; 312 h, 3.3-4.2 leaf stage, 13 DAT, read-out: Growth inhibition rate (%) of AT Measured value): 5%
- inhibition at 50 g/ha ([3]; 336 h, 3.0-4.0 leaf stage, 14 DAT, read-out: Growth inhibition rate (%) of AT Measured value): 0%
- inhibition at 50 g/ha [3, 5]: 0%

Structure (SMILES): CCS(=O)(=O)c1cccnc1S(=O)(=O)NC(=O)Nc1nc(OC)cc(OC)n1 [Rimsulfuron, rimsulfuron]
- inhibition at 15 g/ha ([1]; 552 h, 4.0-5.1 leaf stage, 23 DAT, 15 g/ha, read-out: Growth inhibition rate (%) of DS Measured value): 98%
- inhibition at 20 g/ha ([3]; 504 h, 3.5-4.3 leaf stage, 21 DAT, 20 g/ha, read-out: Growth inhibition rate (%) of AT Measured value): 99%
- inhibition at 15 g/ha ([3]; 552 h, 3.0-3.5 leaf stage, 23 DAT, 15 g/ha, read-out: Growth inhibition rate (%) of AT Measured value): 70%

Structure (SMILES): CS(=O)(=O)c1ccc(C(=O)C2C(=O)CCCC2=O)c(Cl)c1 [Sulcotrione]
- inhibition at 25 g/ha ([1]; 480 h, read-out: Growth inhibition rate (%) of DS Measured value, 3.7-4.0 leaf stage, 20 DAT, 25 g/ha): 45%
- inhibition at 50 g/ha ([1]; 480 h, read-out: Growth inhibition rate (%) of DS Measured value, 3.7-4.0 leaf stage, 20 DAT, 50 g/ha): 60%
- inhibition at 100 g/ha ([1]; 480 h, read-out: Growth inhibition rate (%) of DS Measured value, 3.7-4.0 leaf stage, 20 DAT, 100 g/ha): 80%
- inhibition at 50 g/ha ([1]; 480 h, read-out: Growth inhibition rate (%) of DS Measured value, 5.1-5.2 leaf stage, 20 DAT, 50 g/ha): 60%
- inhibition at 100 g/ha ([1]; 480 h, read-out: Growth inhibition rate (%) of DS Measured value, 5.1-5.2 leaf stage, 20 DAT, 100 g/ha): 95%
- inhibition at 31 g/ha ([3]; 576 h, read-out: Growth inhibition rate (%) of AT Measured value, 3.2-4.1 leaf stage, 24 DAT, 31 g/ha): 60%

Source: US8492310B2, “Herbicidal compositions containing benzoylpyrazole compounds” (priority 2008, dated 2013)
